Experiments:
[1] = target: T1, hIno80 core complex (wild type) (Homo sapiens, UniProt Q9ULG1); design: gene INO80; conditions: basal, no nucleosome; ATP:MgCl2:TRIS base 1:1:2; 37°C
Excerpt: coupled NADH fluorescence ATPase assay (PK/LDH) on hIno80 core complex (wild type)

hIno80ΔIes2 complex = target: T2, hIno80ΔIes2 complex (Homo sapiens, UniProt Q9ULG1); conditions: basal, no nucleosome; ATP:MgCl2:TRIS base 1:1:2; 37°C
T2 construct: gene INO80

SC2 = target: T3, SC2 (Homo sapiens, UniProt Q9ULG1); experiment: coupled NADH fluorescence ATPase assay (PK/LDH); type: biochemical; conditions: 1 mM ATP, 100 nM nucleosome, 37°C
T3 construct: gene INO80; insect cells; with RuvB-like 1; RuvB-like 2

[2] = target: T1, hIno80 core complex (wild type); experiment: coupled NADH fluorescence ATPase assay (PK/LDH); type: biochemical; design: gene INO80; nine-subunit core, Ino80 267-1556 with N-terminal 8-His and C-terminal twin Strep-tag II; codon-optimised genes, BTI-TN-5B1-4 insect cells (MultiBac); calculated 743583 Da, SEC-MALS 802 kDa; actin gene not specified; Actin-like protein 6A; Actin-related protein 5; Actin-related protein 8; INO80 complex subunit B; INO80 complex subunit C; RuvB-like 1; RuvB-like 2; conditions: 100 nM H2A nucleosome, ATP varied, 5 mM Mg2+, 37°C; non-competitive with ATP, competitive with nucleosomes; allosteric

T3 sequence (Q9ULG1 487-1556): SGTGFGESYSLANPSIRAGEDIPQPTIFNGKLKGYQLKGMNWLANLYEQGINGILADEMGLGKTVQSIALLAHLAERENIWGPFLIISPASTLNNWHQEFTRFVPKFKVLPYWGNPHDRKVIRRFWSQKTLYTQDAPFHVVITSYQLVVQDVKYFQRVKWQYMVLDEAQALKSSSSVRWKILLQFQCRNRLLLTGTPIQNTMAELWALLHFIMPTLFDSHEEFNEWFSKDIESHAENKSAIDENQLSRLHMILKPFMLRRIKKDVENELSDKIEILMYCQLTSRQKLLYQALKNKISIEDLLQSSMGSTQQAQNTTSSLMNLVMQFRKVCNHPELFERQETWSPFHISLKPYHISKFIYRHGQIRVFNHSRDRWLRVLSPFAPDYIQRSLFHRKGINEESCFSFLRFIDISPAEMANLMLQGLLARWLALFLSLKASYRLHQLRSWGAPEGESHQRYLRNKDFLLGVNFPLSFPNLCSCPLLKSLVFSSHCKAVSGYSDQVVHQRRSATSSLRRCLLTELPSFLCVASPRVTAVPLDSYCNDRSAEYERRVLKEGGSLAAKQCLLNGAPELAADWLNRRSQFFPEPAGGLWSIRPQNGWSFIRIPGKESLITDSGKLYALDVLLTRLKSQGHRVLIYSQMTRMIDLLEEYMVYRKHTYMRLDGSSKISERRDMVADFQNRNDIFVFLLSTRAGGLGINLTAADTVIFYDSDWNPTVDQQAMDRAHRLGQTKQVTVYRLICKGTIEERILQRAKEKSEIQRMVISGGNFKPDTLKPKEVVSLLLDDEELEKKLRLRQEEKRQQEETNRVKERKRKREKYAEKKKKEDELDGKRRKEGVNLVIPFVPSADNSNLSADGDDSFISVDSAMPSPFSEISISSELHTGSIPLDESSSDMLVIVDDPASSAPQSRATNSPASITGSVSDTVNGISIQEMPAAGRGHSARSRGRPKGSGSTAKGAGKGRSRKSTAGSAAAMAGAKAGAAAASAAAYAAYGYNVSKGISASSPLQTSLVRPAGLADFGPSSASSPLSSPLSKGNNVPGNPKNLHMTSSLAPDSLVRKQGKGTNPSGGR
T3 sequence (Q9Y265 whole entry partner): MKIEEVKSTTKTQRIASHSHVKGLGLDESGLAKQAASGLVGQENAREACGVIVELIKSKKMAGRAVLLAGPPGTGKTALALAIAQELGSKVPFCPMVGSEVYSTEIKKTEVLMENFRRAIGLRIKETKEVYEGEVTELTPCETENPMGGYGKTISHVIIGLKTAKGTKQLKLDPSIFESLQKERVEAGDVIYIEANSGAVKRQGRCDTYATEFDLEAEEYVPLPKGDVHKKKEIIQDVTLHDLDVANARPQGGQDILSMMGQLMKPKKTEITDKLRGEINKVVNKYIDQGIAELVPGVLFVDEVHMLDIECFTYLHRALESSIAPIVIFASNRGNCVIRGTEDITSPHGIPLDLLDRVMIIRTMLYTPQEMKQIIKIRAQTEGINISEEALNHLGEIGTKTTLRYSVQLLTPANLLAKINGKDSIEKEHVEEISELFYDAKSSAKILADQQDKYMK
T3 sequence (Q9Y230 2-463 partner): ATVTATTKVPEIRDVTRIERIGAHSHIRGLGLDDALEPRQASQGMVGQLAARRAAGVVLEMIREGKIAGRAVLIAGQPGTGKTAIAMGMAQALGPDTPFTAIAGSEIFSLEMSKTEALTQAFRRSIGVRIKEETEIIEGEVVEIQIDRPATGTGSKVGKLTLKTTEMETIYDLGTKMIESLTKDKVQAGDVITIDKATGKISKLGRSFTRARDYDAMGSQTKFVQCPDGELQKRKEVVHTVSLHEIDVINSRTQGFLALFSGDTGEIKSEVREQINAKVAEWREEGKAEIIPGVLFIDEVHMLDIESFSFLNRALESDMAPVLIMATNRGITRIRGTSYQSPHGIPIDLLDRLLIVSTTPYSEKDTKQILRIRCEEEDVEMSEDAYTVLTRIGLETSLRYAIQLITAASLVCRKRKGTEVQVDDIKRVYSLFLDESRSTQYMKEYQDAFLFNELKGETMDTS

Km [1] [µM] | Km (hIno80ΔIes2 complex) [µM] | Ki [2] [µM] | SMILES | coupled NADH fluorescence ATPase assay (PK/LDH) (SC2)
171 ± 55 | 326 ± 44 |  | Nc1ncnc2c1ncn2[C@@H]1O[C@H](COP(=O)(O)OP(=O)(O)OP(=O)(O)O)[C@@H](O)[C@H]1O [ATP] | Single point inhibition of Ino80 and SC2.
 |  | 37 ± 4 | O=P(O)(O)O[C@H]1[C@H](OP(=O)(O)O)[C@@H](OP(=O)(O)O)[C@H](OP(=O)(O)O)[C@@H](OP(=O)(O)O)[C@H]1OP(=O)(O)O [IP6] | 
